Reference: patent US8618152B2, “Inhibitors of serine proteases, particularly HCV NS3-NS4A proteases” (Vertex Pharmaceuticals Incorporated, priority 2003, dated 2013)
Read-outs that look alike come from different tables or passages of the source. *1 amine or outer side, *2 acyl side, *3 side chain or, on linkers, in order; H or OH if unused. Where a SMILES comes first, the peptide text is derived from it. [ ]: non-standard residue; d: D form. The star is where a group is joined. Pro(3S-Et) = CC[C@H]1CCN[C@@H]1C(=O)O; Pyrazinecarbonyl = O=C(c1cnccn1)*; X1 = CCCC(N[*:1])C(=O)C(=O)[*:2]; Chg = N[C@H](C(=O)O)C1CCCCC1; Tle = CC(C)(C)[C@H](N)C(=O)O

Experiments:
[1] = target: HCV NS3-NS4A protease (tNS3 with KK4A) (Hepatitis C virus genotype 1a, UniProt P27958); assay: HCV Ki assay (HPLC microbore separation of 5AB substrate and products); format: biochemical
Protocol: HPLC Microbore Method for Separation of 5AB Substrate and Products
Substrate: NH2-Glu-Asp-Val-Val-(alpha)Abu-Cys-Ser-Met-Ser-Tyr-COOH
A stock solution of 20 mM 5AB (or concentration of your choice) was made in DMSO w/0.2M DTT. This was stored in aliquots at −20 C.
Buffer: 50 mM HEPES, pH 7.8; 20% glycerol; 100 mM NaCl
Total assay volume was 100 μL
The buffer, KK4A, DTT, and tNS3 were combined; distributed 78 μL each into wells of 96 well plate. This was incubated at 30 C for ˜5-10 min.
2.5 μL of appropriate concentration of test compound was dissolved in DMSO (DMSO only for control) and added to each well. This was incubated at room temperature for 15 min.
Initiated reaction by addition of 20 μL of 250 μM 5AB substrate (25 μM concentration is equivalent or slightly lower than the Km for 5AB).
Incubated for 20 min at 30 C.
Terminated reaction by addition of 25 μL of 10% TFA
Transferred 120 μL aliquots to HPLC vials
Separated SMSY product from substrate and KK4A by the following method:
Microbore Separation Method:
Instrumentation: Agilent 1100
Column thermostated chamber G1316A
Diode array detector G1315A
Solvent A=HPLC grade water+0.1% TFA
Solvent B=HPLC grade acetonitrile+0.1% TFA
Stop time: 17 min Post-run time: 10 min.

[2] = test system: Cells containing hepatitis C virus (HCV) replicon; assay: HCV replicon cell assay; format: cell-based
Protocol: HCV Replicon Cell Assay Protocol
Cells containing hepatitis C virus (HCV) replicon were maintained in DMEM containing 10% fetal bovine serum (FBS), 0.25 mg per ml of G418, with appropriate supplements (media A).
On day 1, replicon cell monolayer was treated with a trypsin:EDTA mixture, removed, and then media A was diluted into a final concentration of 100,000 cells per ml with. 10,000 cells in 100 ul were plated into each well of a 96-well tissue culture plate, and cultured overnight in a tissue culture incubator at 37° C.
On day 2, compounds (in 100% DMSO) were serially diluted into DMEM containing 2% FBS, 0.5% DMSO, with appropriate supplements (media B). The final concentration of DMSO was maintained at 0.5% throughout the dilution series.
Media on the replicon cell monolayer was removed, and then media B containing various concentrations of compounds was added. Media B without any compound was added to other wells as no compound controls.
Cells were incubated with compound or 0.5% DMSO in media B for 48 hours in a tissue culture incubator at 37° C. At the end of the 48-hour incubation, the media was removed, and the replicon cell monolayer was washed once with PBS and stored at −80° C. prior to RNA extraction.
Culture plates with treated replicon cell monolayers were thawed, and a fixed amount of another RNA virus, such as Bovine Viral Diarrhea Virus (BVDV) was added to cells in each well. RNA extraction reagents (such as reagents from RNeasy kits) were added to the cells immediately to avoid degradation of RNA. Total RNA was extracted according the instruction of manufacturer with modification to improve extraction efficiency and consistency. Finally, total cellular RNA, including HCV replicon RNA, was eluted and stored at −80° C. until further processing.
A Taqman real-time RT-PCR quantification assay was set up with two sets of specific primers and probe. One was for HCV and the other was for BVDV. Total RNA extractants from treated HCV replicon cells was added to the PCR reactions for quantification of both HCV and BVDV RNA in the same PCR well. Experimental failure was flagged and rejected based on the level of BVDV RNA in each well. The level of HCV RNA in each well was calculated according to a standard curve run in the same PCR plate. The percentage of inhibition or decrease of HCV RNA level due to compound treatment was calculated using the DMSO or no compound control as 0% of inhibition. The IC50 (concentration at which 50% inhibition of HCV RNA level is observed) was calculated from the titration curve of any given compound.

[3] = 25 nM tNS3, 25 μM KK4A, 25 μM 5AB substrate, 20 min at 30 C, read-out: Ki
[4] = 50% inhibition of HCV RNA level, 48-hour incubation, Taqman real-time RT-PCR, read-out: IC50

HCV NS3-NS4A protease (tNS3 with KK4A), sequence (P27958 1027-1208): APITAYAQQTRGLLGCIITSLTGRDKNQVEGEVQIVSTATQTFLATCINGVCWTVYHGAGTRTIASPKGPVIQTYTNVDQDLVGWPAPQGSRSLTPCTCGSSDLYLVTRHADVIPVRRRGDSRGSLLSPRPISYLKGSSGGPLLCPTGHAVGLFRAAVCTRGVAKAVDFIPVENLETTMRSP

`CCCC(NC(=O)[C@@H]1[C@@H](CC)CCN1C(=O)[C@@H](NC(=O)[C@@H](NC(=O)c1cnccn1)C1CCCCC1)C(C)(C)C)C(=O)C(=O)NC1CC1` (some centres unmarked) [Compound 39] was tested, and the Ki [1, 3] was less than 100 nM and the IC50 [2, 4] was 500 to 1000 nM.
`CCCC(NC(=O)[C@@H]1[C@@H](CC)CCN1C(=O)[C@@H](NC(=O)[C@@H](NC(=O)c1cnccn1)C1CCCCC1)C(C)(C)C)C(=O)C(=O)N[C@@H](Cc1ccccc1)C(=O)O` (stereo partly drawn) [Compound 41] (Pyrazinecarbonyl-[Chg][Tle][Pro(3S-Et)][X1]F-OH) showed a Ki [1, 3] greater than 500 nM and an IC50 ([2]; 48 h) of less than 500 nM.
Work on `CCCC(NC(=O)[C@@H]1[C@@H](CC)CCN1C(=O)[C@@H](NC(=O)[C@@H](NC(=O)c1cnccn1)C1CCCCC1)C(C)(C)C)C(=O)C(=O)N[C@@H](C)c1ccccc1` (some centres unmarked) [Compound 44] yielded a Ki [1, 3] of 100 to 500 nM and an IC50 [2, 4] of 500 to 1000 nM.
`CC[C@H]1CCN(C(=O)[C@@H](NC(=O)[C@@H](NC(=O)c2cnccn2)C2CCCCC2)C(C)(C)C)[C@@H]1C(=O)NC(CC(F)F)C(=O)C(=O)NC1CC1` (some centres unmarked) [Compound 52] was tested, and the Ki [1, 3] was less than 100 nM and the IC50 [2, 4] was less than 500 nM.
Work on `CCCC(NC(=O)[C@@H]1[C@@H](C2CCCCC2)CCN1C(=O)[C@@H](NC(=O)[C@@H](NC(=O)c1cnccn1)C1CCCCC1)C(C)C)C(=O)C(=O)NC1CC1` (some centres unmarked) [Compound 54] yielded a Ki [1, 3] of 100 to 500 nM and an IC50 ([2]; 48 h) greater than 1000 nM.
Work on `CCCC(NC(=O)[C@@H]1[C@@H](C2CCCCC2)CCN1C(=O)[C@@H](NC(=O)[C@@H](NC(=O)c1cnccn1)C1CCCCC1)C(C)(C)C)C(=O)C(=O)NC1CC1` (some centres unmarked) [Compound 55] yielded a Ki [1, 3] of less than 100 nM and an IC50 [2, 4] of 500 to 1000 nM.
`CCCC(NC(=O)[C@@H]1[C@@H](CC)CCN1C(=O)[C@@H](NC(=O)[C@@H](NC(=O)c1cnccn1)C(c1ccccc1)c1ccccc1)C(C)C)C(=O)C(=O)NC1CC1` (some centres unmarked) [Compound 60] gave an IC50 [2, 4] greater than 1000 nM.
With `CCCC(NC(=O)[C@@H]1[C@@H](C2CCCCC2)CCN1C(=O)[C@@H](NC(=O)[C@@H](NC(=O)c1cnccn1)C1CCCCC1)C(C)(C)C)C(=O)C(=O)N[C@@H](C)c1ccccc1` (some centres unmarked) [Compound 62] the Ki [1, 3] was less than 100 nM and the IC50 [2, 4] was 500 to 1000 nM.
`CCCC(NC(=O)[C@@H]1[C@@H](C2CCCCC2)CCN1C(=O)[C@@H](NC(=O)[C@@H](NC(=O)C1CSC(=O)N1)C1CCCCC1)C(C)(C)C)C(=O)C(=O)N[C@@H](C)c1ccccc1` (some centres unmarked) [Compound 63] showed a Ki [1] of less than 100 nM and an IC50 [2, 4] of 500 to 1000 nM.
Work on `CCC[C@H](NC(=O)[C@@H]1[C@@H](C(C)C)CCN1C(=O)[C@@H](NC(=O)[C@@H](NC(=O)c1cnccn1)C1CCCCC1)C(C)C)C(=O)C(=O)NC1CC1` [Compound 64] yielded a Ki [1, 3] of 100 to 500 nM and an IC50 ([2]; 48 h) greater than 1000 nM.
Work on `CCC[C@H](NC(=O)[C@@H]1[C@@H](C2CCCCC2)CCN1C(=O)[C@@H](NC(=O)[C@@H](NC(=O)c1cnccn1)C1CCCCC1)C(C)(C)C)C(=O)C(=O)NC1CC1` [Compound 66] yielded a Ki [1, 3] of 100 to 500 nM and an IC50 [2, 4] of 500 to 1000 nM.
Molecule `CCC[C@H](NC(=O)[C@@H]1[C@@H](C2CCCCC2)CCN1C(=O)[C@@H](NC(=O)[C@@H](NC(=O)c1cnccn1)C1CCCCC1)C(C)(C)C)C(=O)C(=O)N[C@@H](C)C1CCCCC1` [Compound 67] has a Ki [1, 3] greater than 500 nM and an IC50 [2, 4] greater than 1000 nM.
`CCC[C@H](NC(=O)[C@@H]1[C@@H](C2CCCCC2)CCN1C(=O)[C@@H](NC(=O)[C@@H](NC(=O)c1ncc[nH]1)C1CCCCC1)C(C)(C)C)C(=O)C(=O)NC1CC1` [Compound 68] showed a Ki [1, 3] of less than 100 nM and an IC50 [2, 4] of less than 500 nM.
For `CCC[C@H](NC(=O)[C@@H]1[C@@H](C(C)C)CCN1C(=O)[C@@H](NC(=O)[C@@H](NC(=O)c1ncc[nH]1)C1CCCCC1)C(C)(C)C)C(=O)C(=O)NC1CC1` [Compound 69], the Ki [1, 3] was less than 100 nM and the IC50 [2, 4] was less than 500 nM.
`CCC[C@H](NC(=O)[C@@H]1[C@@H](C2CCCCC2)CCN1C(=O)[C@@H](NC(=O)[C@@H](NC(=O)c1cc([N+](=O)[O-])c[nH]1)C1CCCCC1)C(C)(C)C)C(=O)C(=O)NC1CC1` [Compound 71] was tested, and the Ki [1, 3] was less than 100 nM and the IC50 [2, 4] was greater than 1000 nM.
Molecule `CCC[C@H](NC(=O)[C@@H]1[C@@H](C2CCCCC2)CCN1C(=O)[C@@H](NC(=O)[C@@H](NC(=O)c1ccc[nH]1)C1CCCCC1)C(C)(C)C)C(=O)C(=O)NC1CC1` [Compound 72] has a Ki [1, 3] of less than 100 nM and an IC50 [2, 4] of 500 to 1000 nM.
`CCC[C@H](NC(=O)[C@@H]1[C@@H](C(C)(C)C)CCN1C(=O)[C@@H](NC(=O)[C@@H](NC(=O)c1cnccn1)C1CCCCC1)C(C)(C)C)C(=O)C(=O)NC1CC1` [Compound 73] gave a Ki [1, 3] of 100 to 500 nM and an IC50 [2, 4] greater than 1000 nM.
Molecule `CCC[C@H](NC(=O)[C@@H]1[C@@H](C(CC)CC)CCN1C(=O)[C@@H](NC(=O)[C@@H](NC(=O)c1cnccn1)C1CCCCC1)C(C)(C)C)C(=O)C(=O)NC1CC1` [Compound 74] has a Ki [1, 3] of 100 to 500 nM and an IC50 [2, 4] greater than 1000 nM.
`CCC[C@H](NC(=O)[C@@H]1[C@@H](C2CCCC2)CCN1C(=O)[C@@H](NC(=O)[C@@H](NC(=O)c1cnccn1)C1CCCCC1)C(C)(C)C)C(=O)C(=O)NC1CC1` [Compound 75] gave a Ki [1, 3] of 100 to 500 nM and an IC50 [2, 4] greater than 1000 nM.
Work on `CCC[C@H](NC(=O)[C@@H]1[C@@H](CC)[C@@H](C)CN1C(=O)[C@@H](NC(=O)[C@@H](NC(=O)c1cnccn1)C1CCCCC1)C(C)(C)C)C(=O)C(=O)NC1CC1` [Compound 76] yielded a Ki [1, 3] of 100 to 500 nM and an IC50 [2, 4] greater than 1000 nM.
Work on `CCC[C@H](NC(=O)[C@@H]1[C@@H](Cc2ccccc2)CCN1C(=O)[C@@H](NC(=O)[C@@H](NC(=O)c1cnccn1)C1CCCCC1)C(C)(C)C)C(=O)C(=O)NC1CC1` [Compound 77] yielded a Ki [1, 3] of 100 to 500 nM and an IC50 [2, 4] greater than 1000 nM.
